Laboratory results from ChEMBL document CHEMBL1144892, “Synthesis and biological activity of various derivatives of a novel class of potent, selective, and orally active prostaglandin D2 receptor antagonists. 2. 6,6-Dimethylbicyclo[3.1.1]heptane derivatives” (J Med Chem, 2003).

Experiments:
[1] = target: T1, Prostaglandin D2 receptor (Homo sapiens, UniProt Q13258); experiment: Concentration required to inhibit the PGD-2 evoked cAMP formation in human platelets; type: functional
T1 sequence (Q13258 whole entry): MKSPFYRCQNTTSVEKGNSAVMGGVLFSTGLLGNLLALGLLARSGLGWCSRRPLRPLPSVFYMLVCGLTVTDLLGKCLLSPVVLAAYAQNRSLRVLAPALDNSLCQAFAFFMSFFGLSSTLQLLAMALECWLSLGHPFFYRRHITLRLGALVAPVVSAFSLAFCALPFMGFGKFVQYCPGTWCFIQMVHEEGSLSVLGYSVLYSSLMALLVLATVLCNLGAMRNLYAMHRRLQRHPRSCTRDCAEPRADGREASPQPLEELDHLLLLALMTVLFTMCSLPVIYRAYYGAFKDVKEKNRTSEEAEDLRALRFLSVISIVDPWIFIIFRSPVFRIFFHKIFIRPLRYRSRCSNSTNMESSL

[2] = target: T1, Prostaglandin D2 receptor; experiment: Prostaglandin D2 receptor antagonist activity, evaluated by inhibition of [3H]PGD-2 binding to human platelet membranes
Cavia porcellus [3] = experiment: Compound at 10 mg/kg was tested for the inhibition of increase in eosinophil number in bronchoalveolar lavage fluid at 72 hr after inhalation of aerosol antigen in actively sensitized guinea pig; type: functional; conditions: Lung, inhaled or nasal
Cavia porcellus [4] = experiment: Percent inhibition against increase in specific airway resistance by antigen inhalation in conscious guinea pig administered perorally with 10 mg/Kg of compound, 1 hr before the test; type: functional
Cavia porcellus [5] = experiment: Effective dose required to inhibit conjuctival microvascular permeability caused by topical application of 0.1% PGD-2 in guinea pig administered perorally with compound, 1 hour before the test; type: functional
Cavia porcellus [6] = experiment: Compound at 10 mg/kg was tested for the inhibition of increase in eosinophil number in nasal lavage fluid at 5 hr after intranasal antigen challenge in actively sensitized guinea pig; type: functional; conditions: inhaled or nasal
Cavia porcellus [7] = experiment: Effective dose required to inhibit conjuctival microvascular permeability caused by topical application of 0.1% antigen in guinea pig administered perorally with compound, 1 hour before the test; type: functional
Cavia porcellus [8] = experiment: In vivo inhibition of antigen-induced increase in intranasal pressure in actively sensitized guinea pig administered perorally with 3 mg/Kg compound, 10 minutes before the antigen challenge; type: functional; conditions: inhaled or nasal
Cavia porcellus [9] = experiment: In vivo inhibition of antigen-induced increase in intranasal pressure in actively sensitized guinea pig administered perorally with 10 mg/Kg compound, 10 minutes before the antigen challenge; type: functional; conditions: oral
Cavia porcellus [10] = experiment: In vivo percent inhibition against antigen induced increase in intranasal pressure in actively sensitized guinea pig administered intravenously with 1 mg/Kg of compound; type: functional
Cavia porcellus [11] = experiment: In vivo inhibition of antigen-induced increase in intranasal pressure in actively sensitized guinea pig administered intravenously with 1 mg/Kg compound, 10 minutes before the antigen challenge; type: functional
Cavia porcellus [12] = experiment: Percent inhibition against antigen induced increase in intranasal pressure in actively sensitized guinea pig administered intravenously with 1 mg/Kg of compound; type: functional

`CC1(C)[C@H]2C[C@H](CC(=O)CCCCC(=O)O)[C@@H](NC(=O)c3ccsc3)[C@@H]1C2` was tested, and the IC50 [1] was over 1000 nM and the IC50 [2] was over 10000 nM.
Work on `COc1ccc(C(=O)N[C@@H]2[C@@H](C/C=C/CCCC(=O)O)C[C@H]3C[C@@H]2C3(C)C)cc1` yielded an IC50 [1] of 190 nM and an IC50 [2] of 3900 nM.
Compound `CC1(C)[C@H]2C[C@H](C/C=C/CCCc3nnn[nH]3)[C@@H](NC(=O)c3ccsc3)[C@@H]1C2` has an IC50 [1] of 93 nM.
For `Cn1ccc(C(=O)N[C@@H]2[C@@H](C/C=C/CCCC(=O)O)C[C@H]3C[C@@H]2C3(C)C)c1`, the IC50 [1] was 110 nM and the IC50 [2] was 420 nM.
Compound `CC1(C)[C@H]2C[C@H](C/C=C/CCCC(=O)O)[C@@H](NC(=O)c3csc4ccc(O)cc34)[C@@H]1C2` has an inhibition in vivo at 10 mg/kg (Cavia porcellus [3]) of 43%, an Inhibition (Cavia porcellus [4]) of 70% and an ED50 (Cavia porcellus [5]) of 0.12 mg/kg. For the same compound, the inhibition in vivo at 10 mg/kg (Cavia porcellus [6]) was 80%, the ED50 (Cavia porcellus [7]) was 2 mg/kg and the inhibition in vivo at 3 mg/kg (Cavia porcellus [8]) was 64%. For the same compound, the inhibition in vivo at 10 mg/kg (Cavia porcellus [9]) was 96%, the IC50 [1] was 0.9 nM and the IC50 [2] was 1.9 nM.
`Cc1sccc1C(=O)N[C@@H]1[C@@H](C/C=C/CCCC(=O)O)C[C@H]2C[C@@H]1C2(C)C` gave an IC50 [1] of 20 nM and an IC50 [2] of 180 nM.
`CC1(C)[C@H]2C[C@H](C/C=C/CCCC(=O)O)[C@@H](NC(=O)c3ccc(O)cc3)[C@@H]1C2` was tested, and the IC50 [1] was 240 nM and the IC50 [2] was 3400 nM.
In the case of `Cc1scc(C(=O)N[C@@H]2[C@@H](C/C=C/CCCC(=O)O)C[C@H]3C[C@@H]2C3(C)C)c1-c1ccccc1`, the IC50 [1] is reported as 74 nM and the IC50 [2] is reported as 590 nM.
`CC1(C)[C@H]2C[C@H](C/C=C/CCCC(=O)O)[C@@H](NC(=O)c3csc4ccc(NS(C)(=O)=O)cc34)[C@@H]1C2` gave an IC50 [1] of 30 nM and an IC50 [2] of 7500 nM.
`CC1(C)[C@H]2C[C@H](NS(=O)(=O)c3ccc(-c4ccccc4)cc3)[C@@H](C/C=C\CCCC(=O)O)[C@@H]1C2` showed an IC50 [1] of over 1000 nM and an IC50 [2] of 1300 nM.
`CC1(C)[C@H]2C[C@@H](NS(=O)(=O)c3ccc(-c4ccccc4)cc3)[C@H](C/C=C\CCCC(=O)O)[C@@H]1C2` showed an IC50 [1] of over 1000 nM and an IC50 [2] of 1300 nM.
Compound `CC1(C)[C@H]2C[C@H](C/C=C/CCCC(=O)O)[C@@H](NC(=O)c3c[nH]c4ccccc34)[C@@H]1C2` has an IC50 [1] of 110 nM and an IC50 [2] of 520 nM.
`CC1(C)[C@H]2C[C@H](C/C=C\CCCC(=O)O)[C@@H](NS(=O)(=O)c3ccc(-c4ccccc4)cc3)[C@@H]1C2` was tested, and the IC50 [1] was 530 nM and the IC50 [2] was 1200 nM.
With `CC1(C)[C@H]2C[C@H](C/C=C/CCCC(=O)O)[C@@H](NC(=O)c3cccs3)[C@@H]1C2` the Inhibition (Cavia porcellus [10]) was 38%, the IC50 [1] was 15 nM and the IC50 [2] was 3300 nM.
With `CC1(C)[C@H]2C[C@H](C/C=C/CCCC(=O)O)[C@@H](NC(=O)c3csc(-c4ccccc4)c3)[C@@H]1C2` the IC50 [1] was 100 nM and the IC50 [2] was 42 nM.
In the case of `CC1(C)[C@H]2C[C@H](C/C=C\CCCC(=O)O)[C@@H](NC(=O)c3ccc(-c4ccccc4)cc3)[C@@H]1C2`, the IC50 [1] is reported as 470 nM, the IC50 [2] is reported as 47 nM and the inhibition in vivo at 1 mg/kg (Cavia porcellus [11]) is reported as 30%.
Compound `CC1(C)[C@H]2C[C@H](C/C=C\CCCC(=O)O)[C@@H](NC(=O)c3ccc(/N=N/c4ccccc4)cc3)[C@@H]1C2` has an inhibition in vivo at 1 mg/kg (Cavia porcellus [11]) of 60%.
With `CC1(C)[C@H]2C[C@H](NC(=O)c3ccc(-c4ccccc4)cc3)[C@@H](C/C=C\CCCC(=O)O)[C@@H]1C2` the IC50 [1] was over 1000 nM and the IC50 [2] was 5100 nM.
`CC1(C)[C@H]2C[C@H](C/C=C\CCCC(=O)O)[C@@H](NC(=O)c3ccccc3)[C@@H]1C2` showed an inhibition in vivo at 1 mg/kg (Cavia porcellus [11]) of 52%.
Compound `CC1(C)[C@H]2C[C@@H](NC(=O)c3ccc(-c4ccccc4)cc3)[C@H](C/C=C\CCCC(=O)O)[C@@H]1C2` has an IC50 [1] of over 1000 nM and an IC50 [2] of 3600 nM.
`COc1cc(C(=O)N[C@@H]2[C@@H](C/C=C/CCCC(=O)O)C[C@H]3C[C@@H]2C3(C)C)cs1` was tested, and the IC50 [1] was 56 nM and the IC50 [2] was 520 nM.
`CC1(C)[C@H]2C[C@H](C/C=C/CCCC(=O)O)[C@@H](NC(=O)c3csc4ccccc34)[C@@H]1C2` gave an inhibition in vivo at 10 mg/kg (Cavia porcellus [9]) of 82%, an IC50 [1] of 22 nM and an IC50 [2] of 32 nM.
In the case of `CC1(C)[C@H]2C[C@H](C/C=C/CCCC(=O)O)[C@@H](NC(=O)Cc3ccccc3)[C@@H]1C2`, the IC50 [1] is reported as over 1000 nM and the IC50 [2] is reported as over 10000 nM.
`CC1(C)[C@H]2C[C@H](C/C=C/CCCC(=O)O)[C@@H](NC(=O)C3CCCCC3)[C@@H]1C2` was tested, and the IC50 [1] was over 1000 nM and the IC50 [2] was over 10000 nM.
Work on `CC1(C)[C@H]2C[C@H](C/C=C/CCCC(=O)O)[C@@H](NC(=O)c3ccc4c(c3)OCO4)[C@@H]1C2` yielded an IC50 [1] of 170 nM and an IC50 [2] of 2100 nM.
`CC1(C)[C@H]2C[C@H](C/C=C/CCCC(=O)O)[C@@H](NC(=O)c3csc4ccc(F)cc34)[C@@H]1C2` showed an Inhibition (Cavia porcellus [4]) of 69%, an ED50 (Cavia porcellus [5]) of 3.5 mg/kg and an ED50 (Cavia porcellus [7]) of 8.9 mg/kg. It also gave an inhibition in vivo at 3 mg/kg (Cavia porcellus [8]) of 86%, an IC50 [1] of 3.2 nM and an IC50 [2] of 0.42 nM.
With `CC1(C)[C@H]2C[C@H](C/C=C/CCCC(=O)O)[C@@H](NC(=O)c3ccsc3)[C@@H]1C2` the Inhibition (Cavia porcellus [4]) was 15%, the Inhibition (Cavia porcellus [12]) was 77% and the ED50 (Cavia porcellus [5]) was 3.5 mg/kg. For the same compound, the ED50 (Cavia porcellus [7]) was 9.5 mg/kg, the IC50 [1] was 38 nM and the IC50 [2] was 1600 nM.
`CC1(C)[C@H]2C[C@H](C/C=C/CCCC(=O)O)[C@@H](NC(=O)c3cc4ccccc4o3)[C@@H]1C2` was tested, and the IC50 [1] was 76 nM and the IC50 [2] was 690 nM.
Compound `COc1cscc1C(=O)N[C@@H]1[C@@H](C/C=C/CCCC(=O)O)C[C@H]2C[C@@H]1C2(C)C` has an IC50 [1] of 230 nM and an IC50 [2] of 4500 nM.
`CC1(C)[C@H]2C[C@H](C/C=C/CCCC(=O)O)[C@@H](NC(=O)c3ccc4ccccc4c3)[C@@H]1C2` showed an IC50 [1] of 73 nM.
`COc1ccccc1C(=O)N[C@@H]1[C@@H](C/C=C/CCCC(=O)O)C[C@H]2C[C@@H]1C2(C)C` gave an IC50 [1] of 320 nM and an IC50 [2] of 4600 nM.
`Cc1cc(C(=O)N[C@@H]2[C@@H](C/C=C/CCCC(=O)O)C[C@H]3C[C@@H]2C3(C)C)cs1` was tested, and the IC50 [1] was 25 nM and the IC50 [2] was 13 nM.
`CC1(C)[C@H]2C[C@H](C/C=C/CCCC(=O)NS(C)(=O)=O)[C@@H](NC(=O)c3ccsc3)[C@@H]1C2` gave an IC50 [1] of 410 nM and an IC50 [2] of 6000 nM.
In the case of `CC1(C)[C@H]2C[C@H](C/C=C/CCCC(=O)O)[C@@H](NC(=O)c3cncs3)[C@@H]1C2`, the IC50 [1] is reported as 500 nM and the IC50 [2] is reported as over 10000 nM.
Work on `CC1(C)[C@H]2C[C@H](C/C=C/CCCC(=O)O)[C@@H](NC(=O)c3cccnc3)[C@@H]1C2` yielded an IC50 [2] of 330 nM.
`CC1(C)[C@H]2C[C@H](C/C=C/CCCC(=O)O)[C@@H](NC(=O)c3ccc([N+](=O)[O-])cc3)[C@@H]1C2` showed an IC50 [1] of 110 nM and an IC50 [2] of 4400 nM.
In the case of `CN(C(=O)c1ccsc1)[C@@H]1[C@@H](C/C=C/CCCC(=O)O)C[C@H]2C[C@@H]1C2(C)C`, the IC50 [1] is reported as over 1000 nM and the IC50 [2] is reported as over 10000 nM.
Compound `CC1(C)[C@H]2C[C@H](C/C=C/CCCC(=O)O)[C@@H](NC(=O)c3cc4ccccc4s3)[C@@H]1C2` has an IC50 [1] of 390 nM and an IC50 [2] of 19 nM.
`CC1(C)[C@H]2C[C@H](C/C=C/CCCC(=O)O)[C@@H](NC(=O)Cc3ccoc3)[C@@H]1C2` showed an IC50 [1] of 17 nM and an IC50 [2] of 560 nM.
`CC1(C)[C@H]2C[C@H](C/C=C/CCCC(=O)O)[C@@H](NC(=O)c3ccc[nH]3)[C@@H]1C2` gave an IC50 [1] of 37 nM.
With `CN(C(=O)c1ccccc1)[C@@H]1[C@@H](C/C=C/CCCC(=O)O)C[C@H]2C[C@@H]1C2(C)C` the IC50 [1] was over 1000 nM and the IC50 [2] was over 10000 nM.
With `CC1(C)[C@H]2C[C@H](C/C=C/CCCC(=O)O)[C@@H](NC(=O)c3csc4c3CCCC4)[C@@H]1C2` the IC50 [1] was 35 nM and the IC50 [2] was 150 nM.
In the case of `CC1(C)[C@H]2C[C@H](C/C=C/CCCC(=O)O)[C@@H](NC(=O)c3cccc4ccsc34)[C@@H]1C2`, the inhibition in vivo at 10 mg/kg (Cavia porcellus [9]) is reported as 70%, the IC50 [1] is reported as 5.6 nM and the IC50 [2] is reported as 26 nM.
`CC1(C)[C@H]2C[C@H](C/C=C/CCCC(=O)O)[C@@H](NC(=O)c3csc4cc(O)ccc34)[C@@H]1C2` gave an inhibition in vivo at 10 mg/kg (Cavia porcellus [9]) of 88%, an IC50 [1] of 18 nM and an IC50 [2] of 2.2 nM.
